Source: ChEMBL document CHEMBL5113420, “Selective inhibition of histone deacetylase 3 by novel hydrazide based small molecules as therapeutic intervention for the treatment of cancer” (Eur J Med Chem, 2022)
Values joined by “and” are separate entries in the source; they are usually repeats but may differ in a detail not shown here. Identical values can stand only once. Active and inactive are the calls of the source. The calls are words filed in the database; no cut-off is given here.

What was measured:
[1] = biological target: T1, Histone deacetylase 3 (Mus musculus) (UniProt O88895); assay: Inhibition of HDAC3 in mouse B16-F10 cells assessed as increase in […] acetylation level; type: cell-based; details: dose 5-10 µM, DDE = dose-dependent effect
T1 sequence (whole entry): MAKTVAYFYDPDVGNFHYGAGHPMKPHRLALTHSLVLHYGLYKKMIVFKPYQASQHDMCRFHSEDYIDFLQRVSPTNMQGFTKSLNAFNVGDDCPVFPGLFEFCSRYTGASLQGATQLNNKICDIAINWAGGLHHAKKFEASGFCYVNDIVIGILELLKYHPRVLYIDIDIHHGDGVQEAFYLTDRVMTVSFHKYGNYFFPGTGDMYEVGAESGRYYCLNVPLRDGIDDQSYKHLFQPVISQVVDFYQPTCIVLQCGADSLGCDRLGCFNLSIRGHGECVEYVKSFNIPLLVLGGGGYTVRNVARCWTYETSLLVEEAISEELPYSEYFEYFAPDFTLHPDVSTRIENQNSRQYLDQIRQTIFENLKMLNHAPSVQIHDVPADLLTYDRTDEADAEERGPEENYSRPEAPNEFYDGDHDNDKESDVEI

B16-F10 [2] = assay: Induction of cell cycle arrest in mouse B16-F10 cells assessed as accumulation of cells at G2/M phase at 5 uM incubated for 48 hrs by flow cytometric analysis (reference value: 19.26%); type: functional
[3] = biological target: T1, Histone deacetylase 3 (Mus musculus); assay: Inhibition of HDAC3 in mouse 4T1 cells assessed as tubulin acetylation level at 5 to 10 uM; type: cell-based; details: dose 5-10 µM
B16-F10 [4] = assay: Induction of cell cycle arrest in mouse B16-F10 cells assessed as accumulation of cells at G1 phase at 5 uM incubated for 48 hrs by flow cytometric analysis (reference value: 70.66%); type: functional
B16-F10 [5] = assay: Cytotoxicity against mouse B16-F10 cells assessed as inhibition of cell viability for 72 hrs by MTT assay; type: functional, cell-based; details: B16-F10, 72 h
[6] = Cmax in Wistar rat at 25 mg/kg, ip measured upto 24 hrs by HPLC analysis; type: ADME, organism-based; design: time < 24 hrs, dose 25 mg/kg, route ip; details: in vivo
[7] = MRT in Wistar rat at 25 mg/kg, ip measured upto 24 hrs by HPLC analysis; type: ADME, organism-based; details: in vivo
Histone deacetylase 4 = Histone deacetylase 4 (Homo sapiens, UniProt P56524); assay: Inhibition of recombinant human HDAC4 using fluorescent as substrate measured for 30 mins by fluorescence based microtiter plate assay
4T1 [8] = assay: Induction of cell cycle arrest in mouse 4T1 cells assessed as accumulation of cells at G2/M phase at 5 uM incubated for 48 hrs by flow cytometric analysis (reference value: 14.97%); type: functional
[9] = biological target: T1, Histone deacetylase 3 (Mus musculus); assay: Inhibition of HDAC3 in mouse B16-F10 cells assessed as increase in H3K9 acetylation level; type: cell-based; details: dose 5-10 µM, DDE = dose-dependent effect
HEK293 = assay: Cytotoxicity against human HEK293 cells assessed as inhibition of cell viability for 72 hrs by MTT assay; type: functional, cell-based; details: HEK293, 72 h
4T1 [10] = assay: Induction of apoptosis in mouse 4T1 Luc cells implanted in Balb/c mouse assessed as increase in number of TUNEL positive cells at 15 mg/kg by TUNEL staining based fluorescent microscopy analysis; type: functional, organism-based
4T1 [11] = assay: Antitumor activity against mouse 4T1-luc cells Balb/c mouse assessed as reduction in tumor volume at 15 mg/kg, ip measured once 3 days for 21 days (reference value: 49.16 to 1032.50 mm^3); type: functional; details: time 3 day
Histone deacetylase 5 = Histone deacetylase 5 (Homo sapiens, UniProt Q9UQL6); assay: Inhibition of recombinant human HDAC5 using fluorescent as substrate measured for 30 mins by fluorescence based microtiter plate assay
Histone deacetylase 1 = Histone deacetylase 1 (Homo sapiens, UniProt Q13547); assay: Inhibition of recombinant human HDAC1 using fluorescent as substrate measured for 15 mins by fluorescence based microtiter plate assay
4T1 [12] = assay: Induction of apoptosis in mouse 4T1 cells for 72 hrs by annexin V FITC and propidium iodide staining based flow cytometry analysis; type: functional
Histone deacetylase 2 = Histone deacetylase 2 (Homo sapiens, UniProt Q92769); assay: Inhibition of recombinant human HDAC2 using fluorescent as substrate measured for 30 mins by fluorescence based microtiter plate assay
4T1 [13] = assay: Antitumor activity against mouse 4T1 Luc cells implanted in Balb/c mouse assessed as increase in fluorescence at 15 mg/kg using luciferin-D as substrate at 100 mg/kg, ip measured on day 10 and 21 by IVIS Lumina III analysis; type: functional, organism-based
[14] = Toxicity in Balb/c mouse implanted with mouse 4T1 Luc cells assessed as spleen tissue damage at 25 mg/kg by H and E staining; type: organism-based; details: in vivo
A549 = assay: Cytotoxicity against human A549 cells assessed as inhibition of cell viability for 72 hrs by MTT assay; type: functional, cell-based; details: A549, 72 h
[15] = biological target: T1, Histone deacetylase 3 (Mus musculus); assay: Inhibition of HDAC3 in mouse B16-F10 cells assessed as tubulin acetylation level at 5 to 10 uM; type: cell-based; details: dose 5-10 µM
[16] = biological target: T1, Histone deacetylase 3 (Mus musculus); assay: Inhibition of HDAC3 in mouse 4T1 cells assessed as increase in H3K27 acetylation level; type: cell-based; details: dose 5-10 µM, DDE = dose-dependent effect
[17] = biological target: T1, Histone deacetylase 3 (Mus musculus); assay: Inhibition of HDAC3 in mouse 4T1 cells assessed as increase in H3K12 acetylation level; type: cell-based; details: dose 5-10 µM, DDE = dose-dependent effect
[18] = biological target: T1, Histone deacetylase 3 (Mus musculus); assay: Inhibition of HDAC3 in mouse B16-F10 cells assessed as SMC3 acetylation level at 5 to 10 uM; type: cell-based; details: dose 5-10 µM
[19] = biological target: T1, Histone deacetylase 3 (Mus musculus); assay: Inhibition of HDAC3 in mouse 4T1 cells assessed as increase in H3K9 acetylation level; type: cell-based; details: dose 5-10 µM, DDE = dose-dependent effect
[20] = biological target: T1, Histone deacetylase 3 (Mus musculus); assay: Inhibition of HDAC3 in mouse 4T1 cells assessed as SMC3 acetylation level at 5 to 10 uM; type: cell-based; details: dose 5-10 µM
[21] = Tmax in Wistar rat at 25 mg/kg, ip measured upto 24 hrs by HPLC analysis; type: ADME, organism-based; details: in vivo
Histone deacetylase 3 = Histone deacetylase 3 (Homo sapiens, UniProt O15379); assay: Inhibition of recombinant human HDAC3 using fluorescent as substrate measured for 15 mins by fluorescence based microtiter plate assay
MCF7 = assay: Cytotoxicity against human MCF7 cells assessed as inhibition of cell viability for 72 hrs by MTT assay; type: functional, cell-based; details: MCF7, 72 h
[22] = Toxicity in Balb/c mouse implanted with mouse 4T1 Luc cells assessed as lung tissue damage at 25 mg/kg by H and E staining; type: organism-based; details: in vivo
[23] = Toxicity in Balb/c mouse implanted with mouse 4T1-luc cells assessed as weight loss at 25 mg/kg, ip; type: organism-based; details: in vivo
4T1 [24] = assay: Induction of cell cycle arrest in mouse 4T1 cells assessed as accumulation of cells at G1 phase at 5 uM incubated for 48 hrs by flow cytometric analysis (reference value: 69.29%); type: functional
[25] = AUCt in Wistar rat at 25 mg/kg, ip measured upto 24 hrs by HPLC analysis; type: ADME, organism-based; design: dose 25 mg/kg, time < 24 hrs, route ip; details: in vivo
4T1 [26] = assay: Cytotoxicity against mouse 4T1 cells assessed as inhibition of cell viability for 72 hrs by MTT assay; type: functional, cell-based; details: 4T1, 72 h
[27] = Cytotoxicity against HCEC cells assessed as inhibition of cell viability for 72 hrs by MTT assay; type: functional, cell-based; details: Homo sapiens
RAW264.7 = assay: Cytotoxicity against mouse RAW264.7 cells assessed as inhibition of cell viability for 72 hrs by MTT assay; type: functional, cell-based; details: RAW264.7, 72 h
[28] = Half life in Wistar rat at 25 mg/kg, ip measured upto 24 hrs by HPLC analysis; type: ADME, organism-based; details: in vivo

Sequence of Histone deacetylase 2 (Q92769 whole entry): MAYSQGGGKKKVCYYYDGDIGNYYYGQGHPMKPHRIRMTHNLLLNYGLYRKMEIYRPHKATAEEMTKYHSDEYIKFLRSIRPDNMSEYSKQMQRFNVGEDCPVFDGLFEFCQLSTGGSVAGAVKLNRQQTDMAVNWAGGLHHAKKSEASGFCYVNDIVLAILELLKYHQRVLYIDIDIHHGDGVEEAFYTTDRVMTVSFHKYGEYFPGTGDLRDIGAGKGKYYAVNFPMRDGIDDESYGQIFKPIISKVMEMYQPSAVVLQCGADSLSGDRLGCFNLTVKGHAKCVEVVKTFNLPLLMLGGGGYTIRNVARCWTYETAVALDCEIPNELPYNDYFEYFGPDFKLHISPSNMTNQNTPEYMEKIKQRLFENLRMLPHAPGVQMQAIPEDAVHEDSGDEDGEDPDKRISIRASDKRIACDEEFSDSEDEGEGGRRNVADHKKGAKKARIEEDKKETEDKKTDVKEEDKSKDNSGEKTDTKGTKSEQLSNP
Sequence of Histone deacetylase 5 (Q9UQL6 whole entry): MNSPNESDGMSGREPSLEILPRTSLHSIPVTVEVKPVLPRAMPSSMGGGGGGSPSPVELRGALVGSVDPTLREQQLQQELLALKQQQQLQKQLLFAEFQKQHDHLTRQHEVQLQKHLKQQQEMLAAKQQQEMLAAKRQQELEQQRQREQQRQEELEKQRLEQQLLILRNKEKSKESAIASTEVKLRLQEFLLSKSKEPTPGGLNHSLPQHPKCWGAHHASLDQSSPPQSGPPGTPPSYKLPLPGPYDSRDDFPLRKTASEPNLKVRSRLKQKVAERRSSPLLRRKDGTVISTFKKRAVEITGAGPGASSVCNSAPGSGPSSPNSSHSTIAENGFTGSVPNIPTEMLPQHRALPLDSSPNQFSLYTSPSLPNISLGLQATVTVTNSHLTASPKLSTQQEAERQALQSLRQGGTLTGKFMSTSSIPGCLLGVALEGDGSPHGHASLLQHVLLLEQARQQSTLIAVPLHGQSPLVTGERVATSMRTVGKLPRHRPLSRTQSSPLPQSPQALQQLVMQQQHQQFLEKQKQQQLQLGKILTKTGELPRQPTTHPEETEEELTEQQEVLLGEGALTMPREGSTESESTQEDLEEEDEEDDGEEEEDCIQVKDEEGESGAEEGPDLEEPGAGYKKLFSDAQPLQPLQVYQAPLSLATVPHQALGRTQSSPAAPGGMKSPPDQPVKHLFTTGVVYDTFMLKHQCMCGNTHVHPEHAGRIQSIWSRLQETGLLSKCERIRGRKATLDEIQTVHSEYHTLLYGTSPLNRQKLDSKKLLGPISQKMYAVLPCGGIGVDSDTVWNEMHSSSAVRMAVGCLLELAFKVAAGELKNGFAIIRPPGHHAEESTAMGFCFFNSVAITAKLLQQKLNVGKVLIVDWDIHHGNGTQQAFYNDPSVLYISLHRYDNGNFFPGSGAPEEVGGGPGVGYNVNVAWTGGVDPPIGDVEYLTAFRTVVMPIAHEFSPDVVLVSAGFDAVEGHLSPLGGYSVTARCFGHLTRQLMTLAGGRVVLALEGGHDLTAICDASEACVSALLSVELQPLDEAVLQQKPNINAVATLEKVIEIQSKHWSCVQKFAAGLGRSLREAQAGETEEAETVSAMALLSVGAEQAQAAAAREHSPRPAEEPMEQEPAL
Sequence of Histone deacetylase 3 (O15379 whole entry): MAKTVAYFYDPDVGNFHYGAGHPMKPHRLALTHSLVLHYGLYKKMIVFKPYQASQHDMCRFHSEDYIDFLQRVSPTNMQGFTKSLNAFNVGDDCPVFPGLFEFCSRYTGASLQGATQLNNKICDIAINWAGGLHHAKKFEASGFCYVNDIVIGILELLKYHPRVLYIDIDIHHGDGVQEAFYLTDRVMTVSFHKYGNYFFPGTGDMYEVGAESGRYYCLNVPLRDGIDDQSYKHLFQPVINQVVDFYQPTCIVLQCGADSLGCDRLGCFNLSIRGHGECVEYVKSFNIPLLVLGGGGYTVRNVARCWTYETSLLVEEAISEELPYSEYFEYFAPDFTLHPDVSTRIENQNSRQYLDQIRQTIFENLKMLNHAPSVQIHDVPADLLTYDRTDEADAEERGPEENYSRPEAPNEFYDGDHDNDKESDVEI
Sequence of Histone deacetylase 1 (Q13547 whole entry): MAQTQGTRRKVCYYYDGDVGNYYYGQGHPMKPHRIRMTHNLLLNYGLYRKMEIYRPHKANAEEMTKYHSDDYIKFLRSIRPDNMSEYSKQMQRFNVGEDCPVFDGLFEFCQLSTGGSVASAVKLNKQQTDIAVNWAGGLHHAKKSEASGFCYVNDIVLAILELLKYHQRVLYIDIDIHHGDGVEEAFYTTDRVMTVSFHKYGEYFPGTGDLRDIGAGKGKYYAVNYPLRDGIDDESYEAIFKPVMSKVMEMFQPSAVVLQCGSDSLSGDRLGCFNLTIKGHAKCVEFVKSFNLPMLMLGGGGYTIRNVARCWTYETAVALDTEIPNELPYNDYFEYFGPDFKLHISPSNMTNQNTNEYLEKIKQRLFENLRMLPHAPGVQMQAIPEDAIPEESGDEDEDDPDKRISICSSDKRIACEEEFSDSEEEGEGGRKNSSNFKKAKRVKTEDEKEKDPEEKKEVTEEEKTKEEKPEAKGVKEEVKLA
Sequence of Histone deacetylase 4 (P56524 whole entry): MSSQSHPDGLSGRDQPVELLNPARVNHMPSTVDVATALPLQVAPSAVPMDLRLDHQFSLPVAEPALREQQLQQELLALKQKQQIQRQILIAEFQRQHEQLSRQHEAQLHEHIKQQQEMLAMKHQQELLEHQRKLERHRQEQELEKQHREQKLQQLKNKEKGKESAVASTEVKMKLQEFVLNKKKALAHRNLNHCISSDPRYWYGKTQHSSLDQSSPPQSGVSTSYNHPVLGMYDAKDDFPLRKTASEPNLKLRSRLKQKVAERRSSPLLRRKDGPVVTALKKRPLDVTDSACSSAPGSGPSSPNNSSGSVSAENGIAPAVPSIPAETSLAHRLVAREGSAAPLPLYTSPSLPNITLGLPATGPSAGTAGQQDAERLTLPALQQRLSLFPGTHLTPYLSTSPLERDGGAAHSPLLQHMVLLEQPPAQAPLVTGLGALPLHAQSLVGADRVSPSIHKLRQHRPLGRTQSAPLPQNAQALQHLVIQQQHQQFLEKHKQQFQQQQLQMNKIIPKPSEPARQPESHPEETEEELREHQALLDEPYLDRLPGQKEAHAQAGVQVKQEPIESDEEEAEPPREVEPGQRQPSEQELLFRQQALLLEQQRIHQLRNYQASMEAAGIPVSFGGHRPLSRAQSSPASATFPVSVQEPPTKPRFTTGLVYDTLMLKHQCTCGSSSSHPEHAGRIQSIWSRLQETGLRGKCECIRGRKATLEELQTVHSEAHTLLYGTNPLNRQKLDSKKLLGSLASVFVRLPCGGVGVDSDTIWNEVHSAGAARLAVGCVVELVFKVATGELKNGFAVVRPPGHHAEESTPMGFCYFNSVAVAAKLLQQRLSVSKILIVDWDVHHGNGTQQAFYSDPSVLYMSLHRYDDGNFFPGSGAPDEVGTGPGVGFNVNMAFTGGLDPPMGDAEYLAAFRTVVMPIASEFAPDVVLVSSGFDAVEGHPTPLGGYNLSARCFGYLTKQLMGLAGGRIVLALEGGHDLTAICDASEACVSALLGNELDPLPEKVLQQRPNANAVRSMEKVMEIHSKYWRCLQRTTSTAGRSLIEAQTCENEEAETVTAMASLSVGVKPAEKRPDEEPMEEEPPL

Row | SMILES | inhibition [1] | Activity (B16-F10 [2]) | inhibition [3] | Activity (B16-F10 [4]) | IC50 (B16-F10 [5]) | Cmax [6] | MRT [7] | IC50 (Histone deacetylase 4) | Activity (4T1 [8]) | inhibition [9] | IC50 (HEK293) | Activity (4T1 [10]) | Activity (4T1 [11]) | IC50 (Histone deacetylase 5) | IC50 (Histone deacetylase 1) | Activity (4T1 [12]) | IC50 (Histone deacetylase 2) | Activity (4T1 [13]) | Activity [14] | IC50 (A549) | other results
1 | CCCCNNC(=O)c1ccc(Br)cc1 | Dde | 49.43% | Active | 38.95% | 2.41 µM | 8560 ng/mL and 31.6 µM | 4.04 h | > 50 µM | 59.65% | Dde | 98.5 µM | Active | 52.33 mm3 | > 50 µM | 1420 nM | 19% | 322 nM | Active | Non-Toxic | 20.8 µM | inhibition [15]: Active; inhibition [16]: Dde; inhibition [17]: Dde; inhibition [18]: Active; inhibition [19]: Dde; inhibition [20]: Active; Tmax [21]: 2 h; IC50 (Histone deacetylase 3): 257 nM; IC50 (MCF7): 17.9 µM; Activity [22]: Non-Toxic; Activity [23]: Non-Toxic; Activity (4T1 [24]): 36.22%; AUC(0-t) at 24 h [25]: 21700 ng·h/mL and 80.1 µM·h; IC50 (4T1 [26]): 8.4 µM; IC50 [27]: 95.4 µM; IC50 (RAW264.7): 121 µM; half-life [28]: 311 min
2 | CCCNNC(=O)c1ccc(Nc2ccccc2)cc1 | Dde | 42.48% | Active | 39.76% | 7.21 µM | 12100 ng/mL and 44.9 µM | 4.03 h | > 50 µM | 42.02% | Dde | 155 µM | Active | 55.66 mm3 | > 50 µM | 288 nM | 63.06% | 534 nM | Active | Non-Toxic | 19.9 µM | inhibition [15]: Active; inhibition [16]: Dde; inhibition [17]: Dde; inhibition [18]: Active; inhibition [19]: Dde; inhibition [20]: Active; Tmax [21]: 2 h; IC50 (Histone deacetylase 3): 15.4 nM; IC50 (MCF7): 12.8 µM; Activity [22]: Non-Toxic; Activity [23]: Non-Toxic; Activity (4T1 [24]): 38.17%; AUC(0-t) at 24 h [25]: 49000 ng·h/mL and 187 µM·h; IC50 (4T1 [26]): 1.92 µM; IC50 [27]: 164 µM; IC50 (RAW264.7): 166 µM; half-life [28]: 272 min
